In US7718655B2, “Trisubstituted triazine compounds, and methods for making and using the compounds, which have antitubulin activity” (New York University, priority 2001, dated 2010) one finds IC50 data, which are given here for twelve compounds.

Like-named read-outs stand apart in the source and are kept apart here.

In one experiment the test system is T1, tubulin.
T1 construct: fused on or other part: rhodamine label on part of the tubulin (a fluorescent tracer, not a protein)
As to the kind of experiment: In vitro microtubule disassembly assay. The class given is biochemical. As to conditions: tubulin and rhodamine-tubulin, 37° C. for 20 minutes, fluorescence microscopy. On the procedure:
In Vitro Microtubule Disassembly Assay
Reagent A was made by mixing 250 mg/25 mL tubulin and rhodamine-tubulin (60 mg/6 mL), purchased from Cytoskeleton, with 20 mL, 10 mM GTP at 0° C. Reagent B was made by dissolving the compounds (various concentrations, 2 mL in DMSO) in 2×assay buffer (200 mL, 80 mM K PIPES (pH 7.5), 5 mM MgCl2, 1 mM EDTA). Two mL of Reagent A and two mL of Reagent B were mixed in a […] and incubated at 37° C. for 20 minutes. Then, 100 uL of 60% glycerol was added and mixed by gently pipetting the mixture up and down three times. Two uL of the mixture was placed onto a glass slide, covered with a coverslip, and observed by fluorescence microscopy (400×magnification, rhodamine channel).

The test system of experiment [1] is Human U937 leukemia cells. As to the kind of experiment: Growth inhibition of cancer cells (MTS). The format is cell-based. The settings on record: 490 nm, read-out: IC50 (Cancer cell growth inhibition). Here is the method:
Growth Inhibition of Cancer Cells
Human U937 leukemia cells were obtained from ATCC. Cells were grown in proliferation media (RPMI-1640 plus 2.38 g/L HEPES, 4.5 g/L glucose, 1.5 g/L NaHCO3, 0.3 g/L Glutamine, 0.11 g Na Pyruvate) plus 20% fetal calf serum. Cells were kept at 37° C., 5% CO2, at a concentration of 0.2-1×10^6 cells/ml. To a 100 μl cell suspension in 96-well plate (1×10^4 cells/well), 20 μl of MTS tetrazolium reagent solution (Promega) in RPMI -1640 medium was added for 2 hours at 37° C. in a 5% CO2 atmosphere. After the incubation period, the reduced formazan product was measured at 490 nm using a plate reader.

[2] abbreviates: Homo sapiens, U-937, MTS tetrazolium reagent.

Take `COc1ccc(CNc2nc(NCc3ccc(OC)cc3)nc(NC3CCCC3)n2)cc1` [Compound S1]: the results for the IC50 (with tubulin; in experiment [1] (setting [2])) were 8 µM and 10 µM, respectively.
For `COc1ccc(CNc2nc(NCc3ccc(OC)cc3)nc(NCC3CCCO3)n2)cc1` (stereo not drawn) [Compound S17], the IC50 with tubulin is < 20 µM; in experiment [1] (setting [2]), 10 µM.
On to `COc1ccc(CNc2nc(NCc3ccc(OC)cc3)nc(NC3CC3)n2)cc1` [Compound S22], for which the IC50 with tubulin was < 20 µM; in experiment [1] (setting [2]), 25 µM.
As to `CCC(C)Nc1nc(NCc2ccc(OC)cc2)nc(NCc2ccc(OC)cc2)n1` (stereo not drawn) [Compound S25], the IC50 is < 20 µM in the experiment on tubulin and 25 µM in experiment [1] (setting [2]).
The like results for `CNc1nc(NCc2ccc(OC)cc2)nc(NCc2ccc(OC)cc2)n1` [Compound S33] were, in that order, < 20 µM and 18 µM.
For `COc1ccc(CNc2nc(NCCO)nc(NCc3ccc(OC)cc3)n2)cc1` [Compound S34] the same measures were < 20 µM and 20 µM.
As to `COc1ccc(CNc2nc(NCc3ccc(OC)cc3)nc(NC3CCC3)n2)cc1` [Compound S43], the IC50 in the experiment with tubulin is < 20 µM; in experiment [1] (setting [2]) it was 12 µM.
As for `CCNc1nc(NCc2ccc(OC)cc2)nc(NCc2ccc(OC)cc2)n1` [Compound S51], the IC50 in the experiment on tubulin is < 20 µM; in experiment [1] (setting [2]), 20 µM.
On to `COc1ccc(CNc2nc(NCc3ccc(OC)c(OC)c3)nc(NC3CCCCC3)n2)cc1` [Compound S53], for which the results for the IC50 (with tubulin; in experiment [1] (setting [2])) were 2.5 µM and 1 µM, respectively.
Consider `COc1ccc(CNc2nc(NCc3ccc(OC)cc3)nc(NC3CCCCC3)n2)cc1` [Compound S77, N-Cyclohexyl-N′,N″-bis-(4-methoxybenzyl)-[1,3,5]Triazine-2,4,6-triamine], for which the IC50 was < 20 µM in the experiment with tubulin and 5 µM in experiment [1] (setting [2]).
In the case of `COc1ccc(CNc2nc(NCc3ccc(OC)cc3)nc(N3CCOCC3)n2)cc1` [Compound S78, N′,N″-Bis-(4-methoxybenzyl)-6-morpholin-4-yl-[1,3,5]Triazine-2,4-diamine], the IC50 was < 20 µM in the experiment with tubulin and 12 µM in experiment [1] (MTS tetrazolium reagent).
With `COc1ccc(CNc2nc(NCc3ccc(OC)cc3)nc(NC(C)C)n2)cc1` [Compound S84, N-Isopropyl-N′,N″-bis-(4-methoxybenzyl)-[1,3,5]Triazine-2,4,6-triamine], the IC50 in the experiment on tubulin was < 20 µM; in experiment [1] (setting [2]), 9 µM.

What is called IC50 is the concentration at which inhibition is half-maximal.
